Data published in article PMC5366886, “Structure of the Cyanuric Acid Hydrolase TrzD Reveals Product Exit Channel” (Scientific Reports, 2017).

B1: TrzD, a cyanuric acid hydrolase from Acidovorax citrulli (enzyme, UniProt P0A3V4 1-370, looked up)
chain: MQAQVFRVPMSNPADVSGVAKLIDEGVIRAEEVVCVLGKTEGNGCVNDFTRGYTTLAFKVYFSEKLGVSRQEVGERIAFIMSGGTEGVMAPHCTIFTVQKTDNKQKTAAEGKRLAVQQIFTREFLPEEIGRMPQVTETADAVRRAMREAGIADASDVHFVQVKCPLLTAGRMHDAVERGHTVATEDTYESMGYSRGASALGIALALGEVEKANLSDEVITADYSLYSSVASTSAGIELMNNEIIVMGNSRAWGGDLVIGHAEMKDAIDGAAVRQALRDVGCCENDLPTVDELGRVVNVFAKAEASPDGEVRNRRHTMLDDSDINSTRHARAVVNAVIASIVGDPMVYVSGGSEHQGPAGGGPVAVIARTA
notes: TrzD, cyanuric acid hydrolase of Acidovorax citrulli; full-length trzD gene in pET28b(+); 370 amino acids, ~39.5 kDa; source: E. coli BL21 (DE3), purified (Ni-NTA, Superdex-200 gel filtration); not shown: His-tag, N-terminal, kept

Assays:
[1] = biological target: T1, TrzD (Enterobacter cloacae, UniProt P0A3V4); experiment: co-crystallisation with substrate, X-ray […] A; co-product CO2 seen in density; format: biochemical; conditions: 10 mM cyanuric acid in drop, BIS-TRIS pH 6.5, 20 °C; Mg2+ bound in domain 3; turned over, cyanuric acid itself not reported in the model
T1 sequence (P0A3V4 1-370): B1 chain

[2] = biological target: the molecule itself; experiment: SEC + other: dynamic light scattering; purified TrzD in solution; conditions of this experiment not told

| Molecule | co-crystallisation with substrate, X-ray 2.19 A; co-product CO2 seen in density [1] | stoichiometry N [2] |
| --- | --- | --- |
| O=c1[nH]c(=O)[nH]c(=O)[nH]1 [cyanuric acid, 1,3,5-triazinane-2,4,6-trione] | The protein was crystallized with its natural substrate cyanuric acid by hanging drop |  |
| B1 |  | 4 |
